Experimental data taken from US20080299177A1, “Supramolecular Complexes for Use in Acoustically Mediated Intracellular Drug Delivery in vivo” (Biovaluation & Analysis, Inc., priority 2007, published 2008).

Columns and labels:
[1] = tested on: Henrietta Lacks (HeLa) cells; assay: Ultrasound-mediated intracellular calcein delivery and cell viability in HeLa cells (flow cytometry); assay type: cell-based; conditions: HeLa cells compared with AoSMC cells; 1.1 MHz and 3.1 MHz; FIGS. 14A-14D
Excerpt: Ultrasound. Ultrasonic energy is produced using an immersible, focused, piezoceramic transducer. In this experimental system, two different matching resistance networks are necessary, allowing production of sound at 1.0 MHz and 3.0 MHz, similar to a method known in the art (Guzmán et al., 2001a, 2001b, 2002, and 2003; and Schlicher et al., 2006). A sinusoidal waveform is produced by, for example, programmable waveform generators (Stanford Research Instruments, Sunnyvale, Calif.) used in conjunction to control pulse length, frequency, and peak-to-peak voltage. The sinusoidal waveform is amplified by an RF broadband power amplifier (Electronic Navigation Industries, Rochester, N.Y.) before passing through a matching network and controlling the response of the transducer. The transducer is housed in a polycarbonate tank (FIG. 12 [601]) 34.5×32×40 cm; containing approximately 34 liters of deionized, distilled, and partially degassed water at room temperature (i.e., 22° C. to 23° C.). A thick acoustic absorber is mounted opposite the transducer to minimize standing-wave formation (not illustrated). A three-axis micropositioning system (10 μm resolution; Velmex, Bloomfield, N.Y.) is mounted on top of the tank to position samples and a hydrophone at desired locations in the tank. […]

Mammalian Cells = assay: Ultrasound-mediated intracellular calcein delivery and cell viability (flow cytometry); assay type: cell-based; conditions: calcein released from supramolecular complexes, with contrast agent
Excerpt: Ultrasound. Ultrasonic energy is produced using an immersible, focused, piezoceramic transducer. In this experimental system, two different matching resistance networks are necessary, allowing production of sound at 1.0 MHz and 3.0 MHz, similar to a method known in the art (Guzmán et al., 2001a, 2001b, 2002, and 2003; and Schlicher et al., 2006). A sinusoidal waveform is produced by, for example, programmable waveform generators (Stanford Research Instruments, Sunnyvale, Calif.) used in conjunction to control pulse length, frequency, and peak-to-peak voltage. The sinusoidal waveform is amplified by an RF broadband power amplifier (Electronic Navigation Industries, Rochester, N.Y.) before passing through a matching network and controlling the response of the transducer. The transducer is housed in a polycarbonate tank (FIG. 12 [601]) 34.5×32×40 cm; containing approximately 34 liters of deionized, distilled, and partially degassed water at room temperature (i.e., 22° C. to 23° C.). A thick acoustic absorber is mounted opposite the transducer to minimize standing-wave formation (not illustrated). A three-axis micropositioning system (10 μm resolution; Velmex, Bloomfield, N.Y.) is mounted on top of the tank to position samples and a hydrophone at desired locations in the tank. A PVDF membrane hydrophone (NTR Systems, Seattle, Wash.) is used to measure spatial-peak-temporal-peak negative pressure and to map and calibrate the acoustic field produced by the transducer versus the peak-to-peak voltage signal provided by a function generator.
Preparation of Nanocarriers (Supramolecular Complexes) and Samples. Before Ultrasound exposure, supramolecular complexes are prepared encapsulating calcein (i.e., 15 μM initial solution) by using a procedure of Examples 1 and 2. Samples are prepared at a cell concentration of 10^6 cells/ml, supramolecular complexes containing calcein, and the ultrasound contrast agent Optison® at concentrations of 0.30% v/v (˜1.6×10^6 bubble/ml), 1.8% v/v (˜1.1×10^7 bubble/ml), and 15.0% v/v (˜9.3×10^7 bubble/ml). Optison® is an ultrasound contrast agent, a suspension of perfluorcarbon gas bubbles stabilized with denatured human albumin that is used to serve primarily as nuclei to promote acoustic cavitation activity in sonicated samples. The product name “Optison®” may hereafter be referred to as “contrast agent” or “ultrasound contrast agent.”
Before every experiment, the desired placement of the supramolecular complex and cell samples in the acoustic field is found using the PVDF membrane hydrophone (FIG. 12 [604]). This location is approximately 1 cm and 0.5 cm out of the ultrasound's focus toward the transducer (601) (for 1.1 MHz and 3.1 MHz, respectively). The acoustic pressure is calibrated versus the peak-to-peak voltage of the signal created by the function generator, using the PVDF membrane hydrophone (604) at the desired location. These out-of-focus locations have a broader acoustic beam than at the focus, approximately 10.4-mm and 2.4-mm wide at half-amplitude (i.e., −6 dB) for 1.1 MHz and 3.1 MHz, respectively. […]
Samples are placed within chambers (605) constructed from a cylindrical bulb of polyethylene with an approximate dimension of 1.4 cm in height and 0.6 cm in diameter. […] A metal rod (606) is immediately inserted into the open end of the sample chamber and then attached to the three-axis positioning system (603), placing the sample in the desired location as determined by the hydrophone (604). […]

Compound: O=C(O)CN(CC(=O)O)Cc1cc2c(cc1O)Oc1cc(O)c(CN(CC(=O)O)CC(=O)O)cc1C21OC(=O)c2ccccc21 [calcein]
- cell death [1]: lower levels of death
- uptake [1]: greater uptake
- calcein uptake (Mammalian Cells; mild ultrasound conditions): low levels
- cell death (Mammalian Cells; mild ultrasound conditions): almost no cell death
- calcein uptake (fraction of cells) (Mammalian Cells; moderate ultrasound conditions): one-third
- cell death (Mammalian Cells; moderate ultrasound conditions): some cell death
- cell death (Mammalian Cells; strong ultrasound conditions): kill almost all insonated cells
